The source of these data is patent US20220289753A1, “SHP2 INHIBITORS” (IRBM S.P.A., priority 2019, published 2022).

pIC50: −log10 of the molar value. Some results are limits rather than exact numbers.

The target in this experiment is T1, SHP-2 enzyme (Met1-Leu525) (Homo sapiens, UniProt Q06124).
T1 construct: synthetized by Origene, Met1-Leu525, cat #TP750155; purchased Origene TP750155
T1 sequence (Q06124 1-525): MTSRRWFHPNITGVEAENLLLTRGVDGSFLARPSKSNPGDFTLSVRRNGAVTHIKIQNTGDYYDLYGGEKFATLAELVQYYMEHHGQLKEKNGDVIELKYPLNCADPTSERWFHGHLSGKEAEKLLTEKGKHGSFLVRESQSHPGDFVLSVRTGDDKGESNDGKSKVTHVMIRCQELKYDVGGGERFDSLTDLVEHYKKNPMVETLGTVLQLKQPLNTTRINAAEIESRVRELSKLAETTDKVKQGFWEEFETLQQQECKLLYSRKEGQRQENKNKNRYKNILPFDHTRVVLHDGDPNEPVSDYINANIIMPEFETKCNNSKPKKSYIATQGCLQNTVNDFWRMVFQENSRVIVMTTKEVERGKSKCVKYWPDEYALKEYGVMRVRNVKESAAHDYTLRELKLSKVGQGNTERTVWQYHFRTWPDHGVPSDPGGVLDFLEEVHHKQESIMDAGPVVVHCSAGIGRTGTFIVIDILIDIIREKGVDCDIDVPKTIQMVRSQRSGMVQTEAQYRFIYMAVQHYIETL
The experiment is described as follows: SHP2 inhibition enzymatic assay (DiFMUP substrate, IRS1 peptide activation). To be noted: SHP2 wt; activated by 500 nM IRS1 peptide; 75 μM DiFMUP substrate. The experiment is classed as biochemical. On the procedure:
SHP2 Inhibition Enzymatic Assay
Assay volume of 20 μL/well was assembled in 384 well black polystyrene low-binding microplates (Greiner), using the following buffer: 60 mM HEPES pH 7.2, 75 mM NaCl, 75 mM KCl, 1 mM EDTA pH 8, 0.05% tween-20, 5 mM DTT. The SHP-2 enzyme (synthetized by Origene, Met1-Leu525, cat #TP750155) was used at a final concentration of 0.5 nM.
Briefly, DMSO serially diluted testing compounds were transferred to the bottom of the assay plate. SHP2 was then added together with the IRS1 peptide. 30 minutes post incubation, the DiFMUP substrate was added to the reaction and incubated 30 min at room temperature. […] The fluorescence was detected by a microplate reader (Envision, PerkinElmer) according to the DiFMUP excitation and emission wavelength. The lower the fluorescence the higher the SHP2 inhibition.
The percentage inhibition is fitted against the compound dilutions with a four-parameter logistic regression. The inflection point (i.e. the concentration at which half-maximal inhibition is achieved) is the IC50.
Turning to `Nc1cnc2c(c1)CN(c1nc3nc(Sc4cccnc4C(F)(F)F)cnc3[nH]1)CC2` [Example 108, 6-(5-((2-(trifluoromethyl)pyridin-3-yl)thio)-1H-imidazo[4,5-b]pyrazin-2-yl)-5,6,7,8-tetrahydro-1,6-naphthyridin-3-amine], the pIC50 (usually the IC50 on a negative log10 scale, so that one unit is a factor of ten) is below 5.52.

The compound `CC1(N)CCN(c2nc3nc(Sc4ccn5nccc5n4)cnc3[nH]2)CC1` [Example 65, 4-methyl-1-(5-(pyrazolo[1,5-a]pyrimidin-5-ylthio)-1H-imidazo[4,5-b]pyrazin-2-yl)piperidin-4-amine] gave a pIC50 below 5.52.

The compound `FC(F)(F)c1ncccc1Sc1cnc2[nH]c(NCC3CCNCC3)nc2n1` [Example 110, N-(piperidin-4-ylmethyl)-5-((2-(trifluoromethyl)pyridin-3-yl)thio)-1H-imidazo[4,5-b]pyrazin-2-amine] had a pIC50 below 5.52.

`CC1(N)CCN(c2nc3nc(Sc4ccnc5ccnn45)cnc3[nH]2)CC1` [Example 104, 4-methyl-1-(5-(pyrazolo[1,5-a]pyrimidin-7-ylthio)-1H-imidazo[4,5-b]pyrazin-2-yl)piperidin-4-amine] gave a pIC50 below 5.52.

`CC1(N)CCN(c2nc3ncc(Sc4ccc(-n5nc[nH]c5=O)cc4)nc3[nH]2)CC1` [Example 10, 2-(4-((2-(4-amino-4-methylpiperidin-1-yl)-1H-imidazo[4,5-b]pyrazin-6-yl)thio)phenyl)-2,4-dihydro-3H-1,2,4-triazol-3-one]: the pIC50 was 5.52 to 6.30.

`Cc1cc(Cl)ccc1Sc1cnc2[nH]c(N3CCC(C)(N)CC3)nc2n1` [Example 38, 1-(5-((4-chloro-2-methylphenyl)thio)-1H-imidazo[4,5-b]pyrazin-2-yl)-4-methylpiperidin-4-amine] showed a pIC50 above 6.30.

Take `COC(=O)c1ccccc1Sc1cnc2[nH]c(N3CCC(C)(N)CC3)nc2n1` [Example 78, methyl 2-((2-(4-amino-4-methylpiperidin-1-yl)-1H-imidazo[4,5-b]pyrazin-5-yl)thio)benzoate]: the pIC50 is 5.52 to 6.30.

On to `CC1(N)CCN(c2nc3nc(Sc4ccccc4C#N)cnc3[nH]2)CC1` [Example 23, 2-((2-(4-amino-4-methylpiperidin-1-yl)-1H-imidazo[4,5-b]pyrazin-5-yl)thio)benzonitrile], for which the pIC50 was above 6.30.

On to `CC1(N)CCN(c2nc3nc(Sc4cccc(O)n4)cnc3[nH]2)CC1` [Example 66, 6-((2-(4-amino-4-methylpiperidin-1-yl)-1H-imidazo[4,5-b]pyrazin-5-yl)thio)pyridin-2-ol], for which the pIC50 is below 5.52.

In turn, `Nc1cnccc1Sc1cnc2[nH]c(N3CCC4(CC3)Cc3ccccc3[C@H]4N)nc2n1` [Example 210, (S)-1′-(5-((3-aminopyridin-4-yl)thio)-1H-imidazo[4,5-b]pyrazin-2-yl)-1,3-dihydrospiro[indene-2,4′-piperidin]-1-amine] had a pIC50 above 6.30.

With `CN(C)c1ncccc1Sc1cnc2[nH]c(N3CCC4(CC3)Cc3ccccc3[C@H]4N)nc2n1` [Example 211, (S)-1′-(5-((2-(dimethylamino)pyridin-3-yl)thio)-1H-imidazo[4,5-b]pyrazin-2-yl)-1,3-dihydrospiro[indene-2,4′-piperidin]-1-amine], the pIC50 is above 6.30.

Turning to `FC(F)(F)c1ncccc1Sc1cnc2[nH]c(NCCCN3CCOCC3)nc2n1` [Example 123, N-(3-morpholinopropyl)-5-((2-(trifluoromethyl)pyridin-3-yl)thio)-1H-imidazo[4,5-b]pyrazin-2-amine], the pIC50 was below 5.52.

`FC(F)(F)c1ncccc1Sc1cnc2[nH]c(N3CCC34CCNCC4)nc2n1` [Example 44, 2-(1,7-diazaspiro[3.5]nonan-1-yl)-5-((2-(trifluoromethyl)pyridin-3-yl)thio)-1H-imidazo[4,5-b]pyrazine]: the pIC50 was 5.52 to 6.30.

`CC1(N)CCN(c2nc3nc(Sc4nc5ccccc5c(=O)[nH]4)cnc3[nH]2)CC1` [Example 91, 2-((2-(4-amino-4-methylpiperidin-1-yl)-1H-imidazo[4,5-b]pyrazin-5-yl)thio)quinazolin-4(3H)-one] gave a negative-log IC50 (pIC50) of 5.52 to 6.30.

Turning to `FC(F)(F)c1ncccc1Sc1cnc2[nH]c(NCc3cccnc3N3CCOCC3)nc2n1` [Example 112, N-((2-morpholinopyridin-3-yl)methyl)-5-((2-(trifluoromethyl)pyridin-3-yl)thio)-1H-imidazo[4,5-b]pyrazin-2-amine], the pIC50 was below 5.52.

For the compound `Cn1ncc2cc(Sc3cnc4nc(N5CCC(C)(N)CC5)[nH]c4n3)ccc21` [Example 6, 4-methyl-1-(6-((1-methyl-1H-indazol-5-yl)thio)-1H-imidazo[4,5-b]pyrazin-2-yl)piperidin-4-amine], the pIC50 was 5.52 to 6.30.

For `FC(F)(F)c1ncccc1Sc1cnc2[nH]c(N3CC4(CCCNC4)C3)nc2n1` [Example 17, 2-(2,6-diazaspiro[3.5]nonan-2-yl)-5-((2-(trifluoromethyl)pyridin-3-yl)thio)-1H-imidazo[4,5-b]pyrazine], the pIC50 is 5.52 to 6.30.

Regarding `CC1(N)CCN(c2nc3nc(Sc4cccc(-c5ccccc5)c4)cnc3[nH]2)CC1` [Example 58, 1-(5-([1,1′-biphenyl]-3-ylthio)-1H-imidazo[4,5-b]pyrazin-2-yl)-4-methylpiperidin-4-amine], the pIC50 is 5.52 to 6.30.

For the compound `Nc1nccc(Sc2cnc3[nH]c(N4CCC5(CC4)Cc4ccc(O)cc4[C@H]5N)nc3n2)c1Cl` [Example 208, (S)-1-amino-1′-(5-((2-amino-3-chloropyridin-4-yl)thio)-1H-imidazo[4,5-b]pyrazin-2-yl)-1,3-dihydrospiro[indene-2,4′-piperidin]-6-ol], the pIC50 was above 6.30.

Compound `CC(C)(CNc1nc2nc(Sc3cccnc3C(F)(F)F)cnc2[nH]1)Cc1cccnc1` [Example 113, N-(2,2-dimethyl-3-(pyridin-3-yl)propyl)-5-((2-(trifluoromethyl)pyridin-3-yl)thio)-1H-imidazo[4,5-b]pyrazin-2-amine] showed a pIC50 below 5.52.

`CCn1c(N2CCC(C)(N)CC2)nc2nc(Sc3cccnc3C(F)(F)F)cnc21` [Example 63, 1-(1-ethyl-5-((2-(trifluoromethyl)pyridin-3-yl)thio)-1H-imidazo[4,5-b]pyrazin-2-yl)-4-methylpiperidin-4-amine] showed a pIC50 of 5.52 to 6.30.

Turning to `Cc1cccc(Sc2cnc3[nH]c(N4CCC(C)(N)CC4)nc3n2)c1C` [Example 39, 1-(5-((2,3-dimethylphenyl)thio)-1H-imidazo [4,5-b]pyrazin-2-yl)-4-methylpiperidin-4-amine], the pIC50 is above 6.30.

In turn, `CC1(N)CCN(c2nc3nc(Sc4ccc(C(=O)O)cc4Cl)cnc3[nH]2)CC1` [Example 99, 4-((2-(4-amino-4-methylpiperidin-1-yl)-1H-imidazo[4,5-b]pyrazin-5-yl)thio)-3-chlorobenzoic acid] showed a pIC50 above 6.30.

Turning to `CC1(N)CCN(c2nc3nc(Sc4ccc(C(=O)O)cc4)cnc3[nH]2)CC1` [Example 95, 4-((2-(4-amino-4-methylpiperidin-1-yl)-1H-imidazo[4,5-b]pyrazin-5-yl)thio)benzoic acid], the pIC50 is above 6.30.

`COc1ncccc1Sc1cnc2[nH]c(N3CCC4(CC3)Cc3ccccc3[C@H]4N)nc2n1` [Example 214, (S)-1′-(5-((2-methoxypyridin-3-yl)thio)-1H-imidazo[4,5-b]pyrazin-2-yl)-1,3-dihydrospiro[indene-2,4′-piperidin]-1-amine]: the negative-log IC50 (pIC50) was above 6.30.

In the case of `N[C@@H]1CCCC12CCN(c1nc3ncc(N4CCCc5ncccc54)nc3[nH]1)CC2` [Example 120, (R)-8-(6-(3,4-dihydro-1,5-naphthyridin-1(2H)-yl)-1H-imidazo[4,5-b]pyrazin-2-yl)-8-azaspiro[4.5]decan-1-amine], the pIC50 is below 5.52.

As to `Cc1nc(-c2cccc(Sc3cnc4[nH]c(N5CCC(C)(N)CC5)nc4n3)c2)cs1` [Example 48, 4-methyl-1-(5-((3-(2-methylthiazol-4-yl)phenyl)thio)-1H-imidazo[4,5-b]pyrazin-2-yl)piperidin-4-amine], the pIC50 is 5.52 to 6.30.

In turn, `CC1(N)CCN(c2nc3nc(Nc4cccc(Cl)c4Cl)cnc3[nH]2)CC1` [Example 121, 2-(4-amino-4-methylpiperidin-1-yl)-N-(2,3-dichlorophenyl)-1H-imidazo[4,5-b]pyrazin-5-amine] gave a pIC50 below 5.52.

Compound `Cn1cnc(C2CCN(c3nc4nc(Sc5cccnc5C(F)(F)F)cnc4[nH]3)CC2)c1` [Example 53, 2-(4-(1-methyl-1H-imidazol-4-yl)piperidin-1-yl)-5-((2-(trifluoromethyl)pyridin-3-yl)thio)-1H-imidazo[4,5-b]pyrazine] showed a pIC50 below 5.52.
